# From patent publication US10550111B2, “Pyrimidine urea compound containing isoxazolines and use thereof” (SHENYANG SINOCHEM AGROCHEMICALS R&D CO., LTD, priority 2014, dated 2020)
# How the values were obtained:
# Assay type in all cases: in vivo
# [1] = tested on: Abutilon theophrasti Medic.; assay: Bioassay of herbicidal activity in greenhouse (further screening)
# Procedure: (§1) Determination of herbicidal activity of compounds of the present invention against weeds was carried out by the following procedures:
# (§2) Seeds of monocotyledonous and dicotyledonous weeds were sown in nutrition soil in paper pot (7 cm diameter), covered with soil in 1 cm and grown in the greenhouse under good growth conditions (temperature, atmospheric humidity, water supply). The compounds of the present invention as emulsifiable concentrate, were applied in pre-emergence and post-emergence treatment by track sprayer (Engineer Research Ltd., pressure 1.95 kg/cm^2, volume 500 L/hm^2, track speed 1.48 km/h). Pre-emergence treatment was conducted after seeding 24 hours and post-emergence treatment was done when the respective weeds reached predetermined leaf stage (grass weed 2- to 3-leaf stage, broad-leaf weed 2- to 4-leaf stage), the state of growth of the respective weeds were visually observed to determine the growth inhibition rate (%) in accordance with the following evaluation standard.
# (§3) Growth inhibition rate (%): 0=no discernible action: 100=all weeds dead or not emerged.
# [2] = tested on: Echinochloa crus-galli (L.) Beauv.; assay: as above
# Procedure: as §1, §2, §3
# [3] = tested on: Setaria glauca (L.) Beauv.; assay: as above
# Procedure: as §1, §2, §3
# Zinnia elegans Jacq. = assay: as above
# Procedure: as §1, §2, §3
# [4] = tested on: broad-leaf weeds and grass weeds; assay: General screening of herbicidal activity in greenhouse; details: 1000 g a.i./hm^2;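 further: 0 means no visible effect and 100 means all weeds dead or not emerged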
# Procedure: as §1, §2, §3
smiles,measurement,setting,value
Cn1c(C(F)(F)F)cc(=O)n(-c2cc(C3=NOC(C)(C(N)=O)C3)c(Cl)cc2F)c1=O (stereo not shown) [Compound 22],"Growth inhibition rate, Post-emergence treatment, Abutilon theophrasti Medic.",[1]; dose 37.5 g a.i./hm^2,30%
same,"Growth inhibition rate, Post-emergence treatment, Abutilon theophrasti Medic.",[1]; dose 150 g a.i./hm^2,55%
same,"Growth inhibition rate, Post-emergence treatment, Abutilon theophrasti Medic.",[1]; dose 600 g a.i./hm^2,100%
same,"Growth inhibition rate, Pre-emergence treatment, Abutilon theophrasti Medic.",[1]; dose 37.5 g a.i./hm^2,0%
same,"Growth inhibition rate, Pre-emergence treatment, Abutilon theophrasti Medic.",[1]; dose 150 g a.i./hm^2,0%
same,"Growth inhibition rate, Pre-emergence treatment, Abutilon theophrasti Medic.",[1]; dose 600 g a.i./hm^2,0%
same,"Growth inhibition rate, Post-emergence treatment, Echinochloa crus-galli (L.) Beauv.",[2]; dose 37.5 g a.i./hm^2,0%
same,"Growth inhibition rate, Post-emergence treatment, Echinochloa crus-galli (L.) Beauv.",[2]; dose 150 g a.i./hm^2,5%
same,"Growth inhibition rate, Post-emergence treatment, Echinochloa crus-galli (L.) Beauv.",[2]; dose 600 g a.i./hm^2,10%
same,"Growth inhibition rate, Pre-emergence treatment, Echinochloa crus-galli (L.) Beauv.",[2]; dose 37.5 g a.i./hm^2,0%
same,"Growth inhibition rate, Pre-emergence treatment, Echinochloa crus-galli (L.) Beauv.",[2]; dose 150 g a.i./hm^2,0%
same,"Growth inhibition rate, Pre-emergence treatment, Echinochloa crus-galli (L.) Beauv.",[2]; dose 600 g a.i./hm^2,0%
same,"Growth inhibition rate, Post-emergence treatment, Setaria glauca (L.) Beauv.",[3]; dose 37.5 g a.i./hm^2,10%
same,"Growth inhibition rate, Post-emergence treatment, Setaria glauca (L.) Beauv.",[3]; dose 150 g a.i./hm^2,10%
same,"Growth inhibition rate, Post-emergence treatment, Setaria glauca (L.) Beauv.",[3]; dose 600 g a.i./hm^2,15%
same,"Growth inhibition rate, Pre-emergence treatment, Setaria glauca (L.) Beauv.",[3]; dose 37.5 g a.i./hm^2,0%
same,"Growth inhibition rate, Pre-emergence treatment, Setaria glauca (L.) Beauv.",[3]; dose 150 g a.i./hm^2,0%
same,"Growth inhibition rate, Pre-emergence treatment, Setaria glauca (L.) Beauv.",[3]; dose 600 g a.i./hm^2,0%
same,"Growth inhibition rate, Post-emergence treatment, Zinnia elegans Jacq.",Zinnia elegans Jacq.; dose 37.5 g a.i./hm^2,55%
same,"Growth inhibition rate, Post-emergence treatment, Zinnia elegans Jacq.",Zinnia elegans Jacq.; dose 150 g a.i./hm^2,90%
same,"Growth inhibition rate, Post-emergence treatment, Zinnia elegans Jacq.",Zinnia elegans Jacq.; dose 600 g a.i./hm^2,95%
same,"Growth inhibition rate, Pre-emergence treatment, Zinnia elegans Jacq.",Zinnia elegans Jacq.; dose 37.5 g a.i./hm^2,0%
same,"Growth inhibition rate, Pre-emergence treatment, Zinnia elegans Jacq.",Zinnia elegans Jacq.; dose 150 g a.i./hm^2,0%
same,"Growth inhibition rate, Pre-emergence treatment, Zinnia elegans Jacq.",Zinnia elegans Jacq.; dose 600 g a.i./hm^2,0%
same,pre-emergence and post-emergence herbicidal activity against broad-leaf weeds and grass weeds,[4],good
CC(C)COC(=O)C1(C)CC(c2cc(-n3c(=O)cc(C(F)(F)F)n(C)c3=O)c(F)cc2Cl)=NO1 (stereo not shown) [Compound 397],"Growth inhibition rate, Post-emergence treatment, Abutilon theophrasti Medic.",[1]; dose 7.5 g a.i./hm^2,98%
same,"Growth inhibition rate, Post-emergence treatment, Abutilon theophrasti Medic.",[1]; dose 15 g a.i./hm^2,100%
same,"Growth inhibition rate, Post-emergence treatment, Abutilon theophrasti Medic.",[1]; dose 30.0 g a.i./hm^2,100%
same,"Growth inhibition rate, Post-emergence treatment, Abutilon theophrasti Medic.",[1]; dose 60.0 g a.i./hm^2,100%
same,"Growth inhibition rate, Post-emergence treatment, Abutilon theophrasti Medic.",[1]; dose 120.0 g a.i./hm^2,100%
same,"Growth inhibition rate, Post-emergence treatment, Echinochloa crus-galli (L.) Beauv.",[2]; dose 7.5 g a.i./hm^2,45%
same,"Growth inhibition rate, Post-emergence treatment, Echinochloa crus-galli (L.) Beauv.",[2]; dose 15 g a.i./hm^2,65%
same,"Growth inhibition rate, Post-emergence treatment, Echinochloa crus-galli (L.) Beauv.",[2]; dose 30.0 g a.i./hm^2,100%
same,"Growth inhibition rate, Post-emergence treatment, Echinochloa crus-galli (L.) Beauv.",[2]; dose 60.0 g a.i./hm^2,100%
same,"Growth inhibition rate, Post-emergence treatment, Echinochloa crus-galli (L.) Beauv.",[2]; dose 120.0 g a.i./hm^2,100%
same,"Growth inhibition rate, Post-emergence treatment, Setaria glauca (L.) Beauv.",[3]; dose 7.5 g a.i./hm^2,55%
same,"Growth inhibition rate, Post-emergence treatment, Setaria glauca (L.) Beauv.",[3]; dose 15 g a.i./hm^2,75%
same,"Growth inhibition rate, Post-emergence treatment, Setaria glauca (L.) Beauv.",[3]; dose 30.0 g a.i./hm^2,85%
same,"Growth inhibition rate, Post-emergence treatment, Setaria glauca (L.) Beauv.",[3]; dose 60.0 g a.i./hm^2,100%
same,"Growth inhibition rate, Post-emergence treatment, Setaria glauca (L.) Beauv.",[3]; dose 120.0 g a.i./hm^2,100%
same,"Growth inhibition rate, Post-emergence treatment, Zinnia elegans Jacq.",Zinnia elegans Jacq.; dose 7.5 g a.i./hm^2,60%
same,"Growth inhibition rate, Post-emergence treatment, Zinnia elegans Jacq.",Zinnia elegans Jacq.; dose 15 g a.i./hm^2,85%
same,"Growth inhibition rate, Post-emergence treatment, Zinnia elegans Jacq.",Zinnia elegans Jacq.; dose 30.0 g a.i./hm^2,95%
same,"Growth inhibition rate, Post-emergence treatment, Zinnia elegans Jacq.",Zinnia elegans Jacq.; dose 60.0 g a.i./hm^2,100%
same,"Growth inhibition rate, Post-emergence treatment, Zinnia elegans Jacq.",Zinnia elegans Jacq.; dose 120.0 g a.i./hm^2,100%
same,pre-emergence and post-emergence herbicidal activity against broad-leaf weeds and grass weeds,[4],good
